These results are taken from article PMC5427475, “Effect of clopidogrel on the hydroxylation and sulfoxidation of omeprazole: A single dose study in healthy human volunteers” (EXCLI Journal, 2017).

The Cmax is the highest concentration seen after dosing. A word on the Tmax: it is the time from dosing to the highest level. As a reminder, the AUC(0-inf) is the area under the concentration-time curve extrapolated to infinity. By half-life is commonly meant the time in which the quantity being followed falls by half.

Data set [1] in a line: Single-dose crossover pharmacokinetic study of omeprazole (40 mg) alone or with clopidogrel (150 mg) in healthy volunteers (CYP2C19 EM and PM), plasma LC-MS. It is filed as in vivo, human. The following applies: for AUC0-∞, % increase / Cmax, % increase / E Half-life, % increase / Tmax, % increase / Cl, % increase: OMP+CLOP vs OMP alone; for half-life: read-out: E Half-life (converted). The method, then:
A group of twelve healthy volunteers were recruited for this study (divided into two groups), and written informed consent was obtained from all participants included in the study. […] Electrocardiogram, routine lab tests including hematological, kidney and liver function tests were performed for all the volunteers. They were physically examined and their medical history was also evaluated. All volunteers were non-smokers and abstained from taking any other medicine and juices in the week prior to the study. Volunteers were served standard breakfast and lunch during the study. […] This study was conducted in accordance to “World Medical Association (WMA) declaration of Helsinki-Ethical principles for medical research involving human subjects” and its amendments. The study was approved by the ethical committee, Department of Pharmacy, University of […], Pakistan. (Application number13/EC/Pharm. Ref number 12/Pharm). It was a single dose, 2-period, 2-sequence study with 14 days washout period. […] Approximately 3 mL of blood was collected from each volunteer at 0, 0.5, 1, 2, 3, 4, 6, and 8 hr after dose administration in heparinized tubes. After centrifugation, the plasma was transferred into properly labeled eppendroff tubes and stored at a temperature of -20 °C until analysis. OMP and its metabolites were extracted from the plasma using precipitation method and were analyzed using LCMS method. The mobile phase consisted of 0.1 % formic acid in acetonitrile: 0.1 % formic acid in water (40/60 v/v) using Hichrom RP18 (150 × 3.0 mm, 3 μm UK) as a stationary phase interfaced with a LTQ Orbit rap mass spectrometer. Pantoprazole was used as an internal standard (Ahmad et al., 2015[1]). Various PK parameters were calculated using the PK Solutions software. […] The AUC0-∞ was determined by trapezoidal rule. The elimination half life was determined by using first-order equation, i.e., The apparent oral clearance (CL/F) was determined by using equation, Dose/AUC0-∞. The pharmacokinetic data was interpreted statistically using SPSS software (version 16.0; SPSS, Inc, Chicago, IL). […] P < 0.05 was considered statistically significant.

For data set [2] the following is noted: ref McEwen et al., 1999; cited from earlier work.
Where [3] appears, read: extensive metabolizers, OMP 40 mg + CLOP 150 mg.
[4] abbreviates: extensive metabolizers, OMP 40 mg alone.
[5] abbreviates: poor metabolizers, OMP 40 mg + CLOP 150 mg.
[6] abbreviates: poor metabolizers, OMP 40 mg alone.
[7] abbreviates: human, plasma, oral, 40 mg, extensive metabolizers, OMP 40 mg alone.
Setting [8] is: human, plasma, oral, 40 mg, extensive metabolizers, OMP 40 mg alone, read-out: Tmax.
The mark [9] stands for this setting: human, plasma, oral, 40 mg, poor metabolizers, OMP 40 mg alone.
The mark [10] stands for this setting: human, plasma, oral, 40 mg, poor metabolizers, OMP 40 mg alone, read-out: Tmax.
Where [11] appears, read: human, plasma, oral, extensive metabolizers (n = 8), OMP 40 mg + CLOP 150 mg, single dose, plasma, read-out: Cmax.
The mark [12] stands for this setting: human, plasma, oral, extensive metabolizers, OMP 40 mg + CLOP 150 mg.
Setting [13] is: human, plasma, oral, extensive metabolizers, OMP 40 mg + CLOP 150 mg, read-out: Tmax.
Setting [14] is: human, plasma, oral, poor metabolizers (n = 4), OMP 40 mg + CLOP 150 mg, single dose, plasma, read-out: Cmax.
The mark [15] stands for this setting: human, plasma, oral, poor metabolizers, OMP 40 mg + CLOP 150 mg.
The mark [16] stands for this setting: human, plasma, oral, poor metabolizers, OMP 40 mg + CLOP 150 mg, read-out: Tmax.
[17] abbreviates: human, plasma, po, 40 mg, extensive metabolizers (n = 8), OMP 40 mg alone, single oral dose, plasma, read-out: Cmax.
Setting [18] is: human, plasma, po, 40 mg, poor metabolizers (n = 4), OMP 40 mg alone, single oral dose, plasma, read-out: Cmax.

Like-named read-outs stand apart in the source and are kept apart here.

`COc1ccc2nc([S+]([O-])Cc3ncc(CO)c(OC)c3C)[nH]c2c1` (centres unmarked) [5-OH-OMP, 5-hydroxyomeprazole]: the Cmax came to 401 ± 35 ng/mL in data set [1] (extensive metabolizers (n = 8), OMP 40 mg + CLOP 150 mg, single dose, plasma); 562 ± 53 ng/mL in data set [1] (extensive metabolizers (n = 8), OMP 40 mg alone, single oral dose, plasma); 373 ± 32 ng/mL in data set [1] (poor metabolizers (n = 4), OMP 40 mg + CLOP 150 mg, single dose, plasma); 407 ± 46 ng/mL in data set [1] (poor metabolizers (n = 4), OMP 40 mg alone, single oral dose, plasma). Moreover, the “AUC0-∞” value in data set [1] (setting [3]) is 1615 ± 401 ng·h/mL; in data set [1] (setting [4]), 2203 ± 619 ng·h/mL; in data set [1] (setting [5]), 1566 ± 90 ng·h/mL; in data set [1] (setting [6]), 1607 ± 126 ng·h/mL. The “E Half-life” value in data set [1] (setting [3]) is 1.097 ± 0.106 h; in data set [1] (setting [4]), 1.24 ± 0.129 h; in data set [1] (setting [5]), 2.828 ± 0.188 h; in data set [1] (setting [6]) it was 2.588 ± 0.111 h. Further, the time of peak concentration (Tmax) in data set [1] (setting [3]) came out at 2.49 ± 0.281 h; in data set [1] (setting [4]), 2.723 ± 0.394 h; in data set [1] (setting [5]), 3.138 ± 0.251 h; in data set [1] (setting [6]), 2.988 ± 0.311 h. In addition, the “AUC0-∞, % increase” value in data set [1] (extensive metabolizers) is -14.22% ± 2.80; in data set [1] (poor metabolizers), -1.73% ± 2.38. The “Cmax, % increase” value is -16.23% ± 5.8 in data set [1] (extensive metabolizers) and -4.9% ± 3.61 in data set [1] (poor metabolizers). Besides, the “E Half-life, % increase” value in data set [1] (extensive metabolizers) is recorded as -8.30% ± 6.1. Moreover, the results for the “Tmax, % increase” value in data set [1] (extensive metabolizers) and in data set [1] (poor metabolizers) were -8.23 ± 4.3% and 5.20% ± 4.0, respectively.

As for `COC(=O)[C@H](c1ccccc1Cl)N1CCc2sccc2C1` [CLOP, clopidogrel], the oral bioavailability entry in data set [2] is reported as “less than 50%”.

Regarding `COc1ccc2[nH]c([S+]([O-])Cc3ncc(C)c(OC)c3C)nc2c1` (centres unmarked) [OMP, omeprazole], the “drug metabolite ratio [AUC]OMP/5-OH-OMP” value in data set [1] (EM) came to 1.94 ±0.602; in data set [1] (PM), 9.84 ± 4.543. For the same compound, the entries for the “drug metabolite ratio [AUC]OMP/OMP-S” value in data set [1] (EM) and in data set [1] (PM) were 13.64 ± 2.711 and 9.85 ± 4.98, respectively. The “Cl (apparent oral clearance, Dose/AUC0-∞)” value in data set [1] (setting [3]) amounted to 1.94445 ± 0.356 mL/min/kg; in data set [1] (setting [4]), 2.29722 ± 0.38992 mL/min/kg; in data set [1] (setting [5]), 0.88245 ± 0.125 mL/min/kg; in data set [1] (setting [6]), 0.97735 ± 0.144 mL/min/kg. In addition, the “AUC0-∞, % increase” value was 9.33% ± 5.13 in data set [1] (extensive metabolizers) and 4.11% ± 1.68 in data set [1] (poor metabolizers). Besides, the entries for the “Cl, % increase” value in data set [1] (extensive metabolizers) and in data set [1] (poor metabolizers) were -15.42% ± 4.92 and -9.6% ± 1.72, respectively. Moreover, the “E Half-life, % increase” value is listed as 6.31% ± 4.31 in data set [1] (extensive metabolizers) and -4.73% ± 3.06 in data set [1] (poor metabolizers). The “Tmax, % increase” value is 0.043% ± 0.0204 in data set [1] (extensive metabolizers) and -0.78% ± 0.32 in data set [1] (poor metabolizers). Further, the AUC(0-inf) worked out at 4040 ± 282 ng·h/mL in data set [1] (setting [7]), 8820 ± 778 ng·h/mL in data set [1] (setting [9]), 4900 ± 620 ng·h/mL in data set [1] (setting [12]) and 9070 ± 861 ng·h/mL in data set [1] (setting [15]). Further, the half-life in data set [1] (setting [7]) is 1.05 ± 0.187 h; in data set [1] (setting [9]), 1.58 ± 0.058 h; in data set [1] (setting [12]), 1.13 ± 0.185 h; in data set [1] (setting [15]), 1.51 ± 0.049 h. Also, the Tmax stood at 2.8 ± 0.178 h in data set [1] (setting [8]), 2.99 ± 0.411 h in data set [1] (setting [10]), 2.9 ± 0.228 h in data set [1] (setting [13]) and 2.98 ± 0.414 h in data set [1] (setting [16]). Further, the Cmax in data set [1] (setting [11]) is 1090 ± 146 ng/mL; in data set [1] (setting [14]) it was 1630 ± 116 ng/mL; in data set [1] (setting [17]), 890 ± 83 ng/mL; in data set [1] (setting [18]), 1410 ± 146 ng/mL. For the same compound, the “Cmax, % increase” value in data set [1] (poor metabolizers) is listed as 5.46% ± 2.08.

For `COc1ccc2nc(S(=O)(=O)Cc3ncc(C)c(OC)c3C)[nH]c2c1` [OMP-S, omeprazole sulfone], the “AUC0-∞, % increase” value is reported as 5.01% ± 1.57 in data set [1] (extensive metabolizers) and 2.32% ± 2.9 in data set [1] (poor metabolizers). Also, the “Cmax, % increase” value in data set [1] (extensive metabolizers) is listed as 8.01% ± 2.0. For the same compound, the “E Half-life, % increase” value was 3.81% ± 1.70 in data set [1] (extensive metabolizers) and -6.08% ± 0.96 in data set [1] (poor metabolizers). Further, the “Tmax, % increase” value in data set [1] (extensive metabolizers) is recorded as -2.5% ± 1.18; in data set [1] (poor metabolizers) it was -3.28% ± 0.60. Besides, the AUC(0-inf) in data set [1] (setting [7]) amounted to 535 ± 58 ng·h/mL; in data set [1] (setting [9]) it was 1500 ± 118 ng·h/mL; in data set [1] (setting [12]) it was 612 ± 70 ng·h/mL; in data set [1] (setting [15]), 1520 ± 102 ng·h/mL. In addition, the half-life in data set [1] (setting [7]) is 2.37 ± 0.472 h; in data set [1] (setting [9]), 3.34 ± 0.438 h; in data set [1] (setting [12]), 2.48 ± 0.496 h; in data set [1] (setting [15]) it was 3.14 ± 0.44 h. Further, the Tmax in data set [1] (setting [8]) is 2.72 ± 0.278 h; in data set [1] (setting [10]), 3.06 ± 0.17 h; in data set [1] (setting [13]) it was 2.65 ± 0.255 h; in data set [1] (setting [16]) it was 3 ± 0.077 h. The highest concentration (Cmax) stood at 198 ± 26 ng/mL in data set [1] (setting [11]), 431 ± 56 ng/mL in data set [1] (setting [14]), 175 ± 24 ng/mL in data set [1] (setting [17]) and 444 ± 53 ng/mL in data set [1] (setting [18]).
